Measured values from patent US8324380B2, “Amino-heteroaryl-containing prokineticin 1 receptor antagonists” (Janssen Pharmaceutica NV, priority 2007, dated 2012).
“And” between values parts separate entries of the source, which are not always exact repeats. Equal values may be shown once. Read-outs that look alike come from different tables or passages of the source.

B1: PK1: Recombinant human prokineticin-1 expressed in HEK 293 cells; preparation holds full-length ligand and a four C-terminal residue truncated product (protein, UniProt P58294 20-105, looked up)
Prokineticin-1: AVITGACERDVQCGAGTCCAISLWLRGLRMCTPLGREGEECHPGSHKVPFFRKRKHHTCPCLPNLLCSRFPDGRYRCSMDLKNINF
modifications: mixture with C-terminally truncated product
notes: Recombinant human prokineticin-1 expressed in HEK 293 cells; preparation holds full-length ligand and a four C-terminal residue truncated product

Legend:
[1] = tested on: rat ileal tissues; test: PK1-evoked short-circuit current (Isc) in rat ileum mucosa, Ussing-type flux chambers
[2] = target: T1, GPR73 (prokineticin 1 receptor) (Homo sapiens, UniProt Q8TCW9); test: PK1 functional assay: Ca2+ mobilization on the FLIPR; assay type: cell-based; conditions: for inhibition at 10 µM: read-out: Ca^2+ Mobilization % Inh @10 µM; for IC50: HEK 293 GPR73 cells, read-out: Ca^2+ Mobilization IC50
T1 construct: expressed in transfected cells; host or cells: HEK 293
T1 sequence (Q8TCW9 whole entry, species assumed): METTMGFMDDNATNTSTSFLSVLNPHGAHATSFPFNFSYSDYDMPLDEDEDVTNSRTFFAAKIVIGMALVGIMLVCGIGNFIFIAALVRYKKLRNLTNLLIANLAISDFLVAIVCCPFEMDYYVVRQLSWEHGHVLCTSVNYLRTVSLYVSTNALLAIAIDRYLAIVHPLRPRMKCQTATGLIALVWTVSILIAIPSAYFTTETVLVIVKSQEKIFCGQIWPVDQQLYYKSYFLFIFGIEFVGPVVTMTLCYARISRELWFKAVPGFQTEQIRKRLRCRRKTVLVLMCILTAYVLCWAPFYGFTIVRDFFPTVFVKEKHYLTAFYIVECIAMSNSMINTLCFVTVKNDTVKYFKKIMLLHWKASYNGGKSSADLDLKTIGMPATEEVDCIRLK
Experimental: At a time of 24 h prior to running the assay, in cell culture media (DMEM containing high Glucose and L-glutamine, 10% FBS, 1% Pen/Streptomycin, 1% Sodium Pyruvate, 20 mM HEPES, Zeocin 200 mg/L), 100 µL of 1.3*10^6/ml HEK 293 GPR73 (prokineticin 1 receptor) expressing cells were plated in a 96 well poly-d-lysine coated plate (Costar), and incubated at 37° C. and 5% CO2. On the day in which the assay was run, the media was removed and 200 µL of 5× Calcium Plus Dye (Molecular Devices) which was previously resuspended with 200 mL of assay buffer [HBSS w/Ca^2+ and Mg^2+ w/o phenol red, 20 mM HEPES, 0.1% BSA, 10 mL probenecid (710 mg probenecid in 5 mL of 1N NaOH, to which was then added 5 mL HBSS containing 20 mM HEPES)] was added to each well of the 96-well plate. The plate was incubated at 37° C. and 5% CO2 for 30 min in dark. The plate was removed and allowed to reach RT for 15 min in the dark. The assay was then run on the FLIPR. In Brief: base line read for 1 min, compound added (25 μL) and incubated for 4 min, 15 seconds, PK1 ligand preparation added (25 μL) for a final concentration of a previously determined EC50 and fluorescence was counted for 1 min, 45 seconds. Baseline is described as the amount of relative fluorescence read when buffer alone is added to cells. Baseline was subtracted from all wells. Percent of control was calculated as follows: (Baseline subtracted well value is divided by baseline subtracted max value)*100. Percent inhibition is 100 minus the percent of control value.
The IC50 is defined as the amount of a given compound required to inhibit 50% of the maximum signal that is generated by the concentration of PK1 preparation used in our assay. IC50 values were calculated using GraphPad Prism.

[3] = tested on: ileum mucosal tissues from PK1 receptor knock-out mice; test: PK1-evoked Isc in ileum mucosal tissues from PK1 receptor knock-out mice; conditions: exogenous PK1 peptide

| Molecule | inhibition at 10 µM ([2]; 10 µM) [%] | IC50 [2] | other results |
| --- | --- | --- | --- |
| NC1=N[C@H](O)[C@H]2[C@H]3O[C@]4(O)O[C@@H]([C@@H](O)[C@@]2(N1)[C@@H]4O)[C@]3(O)CO [Tetrodotoxin, reference compound] | – | – | blockade of the pro-secretory effect of PK1 [1]: not blocked |
| Nc1nc2ccccc2n1CCNc1nc(=O)n(Cc2ccc(Cl)c(Cl)c2)c(=O)n1Cc1ccc(OC(F)F)cc1 [Cpd 84] | 97 | 345 nM | – |
| COc1ccc(Cn2c(NCCN3Cc4ccccc4N=C3N)nc(=O)n(Cc3ccc(F)cc3)c2=O)cc1 [Cpd 12, 6-[2-(2-Amino-4H-quinazolin-3-yl)-ethylamino]-3-(4-fluoro-benzyl)-1-(4-methoxy-benzyl)-1H-[1,3,5]triazine-2,4-dione] | 94 | 28 nM | – |
| COc1ccc(Cn2c(NCCn3c(N)nc4cc(C(F)(F)F)ccc43)nc(=O)n(Cc3ccc(F)cc3)c2=O)cc1 [Cpd 8] | 95 | 163 nM | – |
| Nc1nc2cc(F)ccc2n1CCNc1nc(=O)n(Cc2ccc(F)cc2)c(=O)n1Cc1ccc(OC(F)F)cc1 [Cpd 26] | 92 | 81 nM | inhibition at 10 µM ([2]; 10 µM, (further determination)): 88%; IC50 ([2]; IC50 (further determination)): 15 nM |
| CSc1ccc(Cn2c(=O)nc(NCCn3c(N)nc4ccccc43)n(Cc3ccc(OC(F)F)cc3)c2=O)cc1 [Cpd 85] | 99 | 157 nM | – |
| COc1ccc(Cn2c(NCCn3c(N)nc4ccccc43)nc(=O)n(Cc3ccc(SC)cc3)c2=O)cc1 [Cpd 70] | 103 | 22 nM | – |
| Nc1ncc(CCNc2nc(=O)n(Cc3ccc(F)cc3)c(=O)n2Cc2ccc(OC(F)(F)F)cc2)[nH]1 [Cpd 54, 6-[2-(2-Amino-3H-imidazol-4-yl)-ethylamino]-3-(4-fluoro-benzyl)-1-(4-trifluoromethoxy-benzyl)-1H-[1,3,5]triazine-2,4-dione] | 96 | 27 nM and 183 nM | inhibition at 10 µM ([2]; 10 µM, (further determination)): 95%; IC50 ([2]; IC50 (further determination)): 97 nM |
| COc1ccc(Cn2c(NCCn3c(N)nc4ccc(Cl)cc43)nc(=O)n(Cc3ccc(F)cc3)c2=O)cc1 [Cpd 10] | 90 | 155 nM | – |
| COc1ccc(Cn2c(NCCc3cnc(N)[nH]3)nc(=O)n(Cc3ccc(Cl)c(Cl)c3)c2=O)cc1 [Cpd 59] | 96 | 49 nM | – |
| Nc1ncc(CCNc2nc(=O)n(Cc3ccc(Cl)c(Cl)c3)c(=O)n2Cc2ccc(OC(F)F)cc2)[nH]1 [Cpd 79] | 96 | 102 nM | – |
| NC1=Nc2ccc(Cl)cc2CN1CCNc1nc(=O)n(Cc2ccc(F)cc2)c(=O)n1Cc1ccc(OC(F)(F)F)cc1 [Cpd 49] | 103 | 233 nM | – |
| Nc1nc2ccccc2n1CCNc1nc(=O)n(Cc2ccc3c(c2)CCO3)c(=O)n1Cc1ccc(OC(F)F)cc1 [Cpd 87] | 102 | 223 nM | – |
| CCc1ccc(Cn2c(=O)nc(NCCn3c(N)nc4ccccc43)n(Cc3ccc4c(c3)CCO4)c2=O)cc1 [Cpd 75] | 83 | 507 nM | – |
| Nc1nc2ccc(F)cc2n1CCNc1nc(=O)n(Cc2ccc(F)cc2)c(=O)n1Cc1ccc(OC(F)F)cc1 [Cpd 25] | 87 | 170 nM | – |
| CCc1ccc(Cn2c(=O)nc(NCCn3c(N)nc4ccccc43)n(Cc3ccc(OC)cc3)c2=O)cc1 [Cpd 71] | 101 | 90 nM | – |
| Nc1nc2cc(F)ccc2n1CCNc1nc(=O)n(Cc2ccc(F)cc2)c(=O)n1Cc1ccc(OC(F)(F)F)cc1 [Cpd 34] | 87 | 363 nM | – |
| COc1ccc(Cn2c(NCCn3ccnc3N)nc(=O)n(Cc3ccc(F)cc3)c2=O)cc1 [Cpd 2, 6-[2-(2-Amino-imidazol-1-yl)-ethylamino]-3-(4-fluoro-benzyl)-1-(4-methoxy-benzyl)-1H-[1,3,5]triazine-2,4-dione] | 97 | – | inhibition at 10 µM ([2]; 10 µM, (further determination)): 97%; IC50 ([2]; IC50 (further determination)): 5 nM |

| Molecule | inhibition at 10 µM ([2]; 10 µM) [%] | IC50 [2] | other results |
| --- | --- | --- | --- |
| Nc1nccn1CCNc1nc(=O)n(Cc2ccc(F)cc2)c(=O)n1Cc1ccc(F)cc1 [Cpd 21] | 37 | > 10000 nM | – |
| Nc1nc2cc(C(F)(F)F)ccc2n1CCNc1nc(=O)n(Cc2ccc(F)cc2)c(=O)n1Cc1ccc(OC(F)F)cc1 [Cpd 27] | 85 | 310 nM | – |
| CN1[C@@H]2CC[C@H]1C[C@@H](OC(=O)C(CO)c1ccccc1)C2 (some centres unmarked) [Atropine, reference compound] | – | – | blockade of the pro-secretory effect of PK1 [1]: not blocked |
| Nc1nc2ccccc2n1CCNc1nc(=O)n(Cc2ccc(F)cc2)c(=O)n1Cc1ccc(OC(F)(F)F)cc1 [Cpd 19] | 102 | 104 nM | inhibition at 10 µM ([2]; 10 µM, (further determination)): 100%; IC50 ([2]; IC50 (further determination)): 212 nM |
| COc1ccc(Cn2c(NCCc3cnc(N)[nH]3)nc(=O)n(Cc3ccc(SC)cc3)c2=O)cc1 [Cpd 61] | 101 | 21 nM | inhibition at 10 µM ([2]; 10 µM, (further determination)): 102%; IC50 ([2]; IC50 (further determination)): 19 nM |
| COc1ccc(Cn2c(NCCn3c(N)nc4ccccc43)nc(=O)n(Cc3ccc(Cl)c(Cl)c3)c2=O)cc1 [Cpd 69] | 102 | 66 nM | – |
| Nc1nc2ccc(F)cc2n1CCNc1nc(=O)n(Cc2ccc(F)cc2)c(=O)n1Cc1ccc(OC(F)(F)F)cc1 [Cpd 33] | 93 | 323 nM | – |
| NC1=Nc2ccccc2CN1CCNc1nc(=O)n(Cc2ccc(F)cc2)c(=O)n1Cc1ccc(OC(F)(F)F)cc1 [Cpd 47] | 100 | 123 nM | – |
| NC1=Nc2cc(Cl)ccc2CN1CCNc1nc(=O)n(Cc2ccc(F)cc2)c(=O)n1Cc1ccc(OC(F)F)cc1 [Cpd 44] | 103 | 118 nM | – |
| Nc1ncc(CCNc2nc(=O)n(Cc3ccc(F)cc3)c(=O)n2Cc2ccc(OC(F)F)cc2)[nH]1 [Cpd 53] | 93 | 36 nM | inhibition at 10 µM ([2]; 10 µM, (further determination)): 100%; IC50 ([2]; IC50 (further determination)): 15 nM |
| COc1ccc(Cn2c(NCCn3c(N)nc4c(F)cccc43)nc(=O)n(Cc3ccc(F)cc3)c2=O)cc1 [Cpd 11] | 89 | 146 nM | – |
| Nc1nc2ccc(F)c(F)c2n1CCNc1nc(=O)n(Cc2ccc(F)cc2)c(=O)n1Cc1ccc(OC(F)F)cc1 [Cpd 29] | 83 | 406 nM | – |
| COc1cccc2c1nc(N)n2CCNc1nc(=O)n(Cc2ccc(F)cc2)c(=O)n1Cc1ccc(OC(F)F)cc1 [Cpd 55] | 91 | 233 nM | – |
| Nc1ncc(CCNc2nc(=O)n(Cc3ccc(Cl)c(Cl)c3)c(=O)n2Cc2ccc3c(c2)CCO3)[nH]1 [Cpd 63] | 54 | 2010 nM | – |
| Nc1nccn1CCNc1nc(=O)n(Cc2ccc(F)cc2)c(=O)n1Cc1ccc(OC(F)F)cc1 [Cpd 23] | 100 | 28 nM | inhibition at 10 µM ([2]; 10 µM, (further determination)): 97%; IC50 ([2]; IC50 (further determination)): 57 nM |
| CSc1ccc(Cn2c(=O)nc(NCCc3cnc(N)[nH]3)n(Cc3ccc4c(c3)CCO4)c2=O)cc1 [Cpd 64] | 93 | 170 nM | – |
| Nc1nc2cccc(F)c2n1CCNc1nc(=O)n(Cc2ccc(F)cc2)c(=O)n1Cc1ccc(OC(F)F)cc1 [Cpd 32] | 94 | 132 nM | – |
| B1 | – | – | change in Isc compared to wild-type littermates [3]: failed to elicit a significant change; effect on tissue conductance (G) [1]: no significant effect; increase in Isc from baseline ([1]; 10 nM PK1): 13.5±2. […]A/cm^2; increase in Isc from baseline ([1]; 100 nM PK1): 28.7±2.9 µA/cm^2; EC50 ([1]; read-out: EC50 of PK1-evoked increases in Isc, cumulative concentration-response, basolateral addition): ~8.2 nM |
